According to paper PMC10892660 (Pharmaceutics, 2024):
Where two headings read alike, the source gives them in different places.

How the values were obtained:
[1] = cited from earlier work
[2] = system: CYP3A4; details: nicardipine, cited from earlier work
[3] = Non-clinical drug–drug interaction / oral pharmacokinetic study in Sprague–Dawley rats; assay type: in vivo, rat; details: for AUC(0-inf) / CL/F / Cmax / Tmax / half-life: male, Sprague-Dawley, plasma
Description: Male Sprague–Dawley (SD) rats, 7 weeks old (180–210 g), were purchased from Hana Biotech (Pyeongtaek, Republic of Korea). The rats were kept in a room with a relative humidity of 50–60%, a temperature of 21 ± 2 °C, and a 12 h light/dark cycle and were acclimatized to these conditions for a week. The protocol for these experiments was approved by Inje University’s Animal Care Committee (Inje 2022-012, Gimhae, Republic of Korea).
The drug was orally administered via a feeding tube, employing a total dosing volume of 5 mL/kg across all groups. Blood samples (approximately 200 μL) were collected from the jugular vein at 0.25, 0.5, 1, 2, 3, 4, 6, 8, 12, and 24 h post-dose. […] The blood samples were promptly centrifuged at 15,000 rpm for 5 min at 4 °C. The resulting plasma was stored at -70 °C until HPLC or LC-MS/MS analysis.
The calculated pharmacokinetic parameters included the following: area under the time–plasma concentration curve (AUC) between from0 to infinity (AUCinf); maximum plasma concentration (Cmax); time to reach maximum concentration (Tmax); terminal half-life (t1/2); oral clearance (CL/F). Pharmacokinetic parameters are expressed as the mean ± standard deviation (SD). For statistical analysis, a Student’s t-test was performed using GraphPad Prism software (San Diego, CA, USA) with a significance threshold of less than 0.05.
The LC-MS/MS system consisted of an Agilent 6490 triple quadrupole mass spectroscopy system and a 1290 infinity HPLC system (Agilent Technologies, Santa Clara, CA, USA). The separation of compounds was accomplished by a reversed-phase column (Synergi Polar-RP 80 Å, 150 × 2.0 mm, 4 μm, Phenomenex, Torrance, CA, USA) with a security guard. […] Multiple reaction monitoring (MRM) modes were used for the quantitative study of the compound’s precursor ion and product ion transitions. […] In addition, 1′-hydroxy midazolam was analyzed under the following conditions. The mobile phase was a mixture of 0.1% formic acid in water and ACN (50:50 v/v), with a flow rate of 0.2 mL/min. The column temperature was kept constant at 25 °C. The following ion values (m/z) were obtained by monitoring the transitions: 1′-hydroxy midazolam, 342.0 → 203.1; phenacetin (IS), 180.0 → 162.2. The data analysis was achieved using MassHunter software version A.06.00 (Agilent Technologies, Santa Clara, CA, USA).
The HPLC system included a degasser pump (L-2130), a column oven (L-2300), an autosampler (L-2200), and a diode array detector (L-2455). The analysis was carried out using the software Hitachi LaChrom D-2000 Elite (Merck-Hitachi, Tokyo, Japan). The separation was accomplished using a reversed-phase column (Synchronis C18 150 × 4.6 mm, 5 μm, Thermo Scientific, Waltham, MA, USA) with a guard column (security guard C18 4 × 2.0 mm, Phenomenex, Torrance, CA, USA). The mobile phase was comprised of phases A (ACN) and B (0.015 M potassium phosphate monobasic (KH2PO4) with 2.8 mM triethylamine in water). The mobile phase was A:B = 60:40, with a flow rate of 1.5 mL/min. The temperature of the column oven controller was maintained at 40 °C, and 50 μL of sample was injected into the system.

[4] = cited from earlier work; remark: listed apart in the source
[5] = cited from earlier work; remark: listed apart in the source
[6] = cited from earlier work; remark: listed apart in the source
[7] = cited from earlier work; remark: listed apart in the source
[8] = saxagliptin, cited from earlier work
[9] = system: hCYP3A5; parameters: method as in PMID 22496391; details: saxagliptin, cited from earlier work
[10] = system: hCYP3A4; parameters: method as in PMID 22496391; details: saxagliptin, cited from earlier work
[11] = biological target: T1, CYP3A2 (Rattus norvegicus, UniProt P05183); assay: Saxagliptin metabolic stability with recombinant rat CYP3A2; assay type: in vitro ADME; details: rat, recombinant rat CYP3A2, pH 7.4; read-out: half-life after incubation with rCYP3A2 reaction mixture
T1 construct: purchased Xenotech (Lenexa, KS, USA)
T1 sequence (P05183 1-504): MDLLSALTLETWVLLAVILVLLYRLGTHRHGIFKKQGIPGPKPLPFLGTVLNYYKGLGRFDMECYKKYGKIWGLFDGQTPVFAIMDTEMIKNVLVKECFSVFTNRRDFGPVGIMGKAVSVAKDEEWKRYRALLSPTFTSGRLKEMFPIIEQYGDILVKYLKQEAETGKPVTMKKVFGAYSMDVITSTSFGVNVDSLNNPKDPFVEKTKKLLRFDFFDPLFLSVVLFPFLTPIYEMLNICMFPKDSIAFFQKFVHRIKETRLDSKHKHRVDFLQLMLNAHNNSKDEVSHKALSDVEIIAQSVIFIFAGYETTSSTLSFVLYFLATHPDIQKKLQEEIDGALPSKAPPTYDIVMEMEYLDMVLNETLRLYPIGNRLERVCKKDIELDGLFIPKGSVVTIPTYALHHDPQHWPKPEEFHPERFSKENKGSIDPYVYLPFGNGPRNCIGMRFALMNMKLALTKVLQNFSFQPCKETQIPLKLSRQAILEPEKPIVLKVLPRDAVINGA
Description: (§1) After initiating the reaction by adding NADPH solution, the sampling was carried out at 37 °C for 0, 5, 10, 20, and 30 min in triplicate and stopped with methanol containing 200 ng/mL tolbutamide as an internal standard (IS) for HPLC analysis.

[12] = biological target: T2, recombinant rat CYP3A2 (rCYP3A2) (Rattus norvegicus, UniProt P05183); assay: as above; assay type: in vitro ADME; details: in-house data
T2 construct: purchased Xenotech (Lenexa, KS, USA)
T2 sequence (P05183 1-504): T1 sequence (P05183 1-504)
Description: as §1

[13] = nicardipine, input of rat and human models
[14] = nicardipine, rat and human models
[15] = saxagliptin, human PBPK model input
[16] = saxagliptin, rat PBPK model input

Question: What does the source list for `COC(=O)C1=C(C)NC(C)=C(C(=O)OCCN(C)Cc2ccccc2)C1c1cccc([N+](=O)[O-])c1` (centres unmarked) [nicardipine]?
Answer: AUCinf observed ([1]; nicardipine, human po 40 mg): 163 ng·h/mL; Cmax observed ([1]; nicardipine, human po 40 mg): 58.8 ng/mL; t1/2 observed ([1]; nicardipine, human po 40 mg): 2.80 h; Ki ([2]; read-out: Ki CYP3A4, input value, human PBPK model input): […]; Ki ([2]; read-out: Ki CYP3A4, reference value, human): […]; AUC(0-inf) ([3]; rat, po, 15 mg/kg, AUCinf of nicardipine, 15 mg/kg alone, mean ± SD): 408 ± 121 ng·h/mL; CL/F ([3]; rat, po, 15 mg/kg, CL/F of nicardipine, 15 mg/kg alone, mean ± SD): 662 mL/min/kg; Cmax ([3]; rat, po, 15 mg/kg, Cmax of nicardipine, 15 mg/kg alone, mean ± SD): 132 ± 35.3 ng/mL; Tmax ([3]; rat, po, 15 mg/kg, Tmax of nicardipine, 15 mg/kg alone, mean ± SD): 0.357 ± 0.134 h; half-life ([3]; rat, po, 15 mg/kg, t1/2 of nicardipine, 15 mg/kg alone, mean ± SD): 5.76 ± 1.45 h; Specific intestinal permeability, input value [4, 13]: 1.15 10^−6 cm/s; Specific intestinal permeability, reference value [4, 14]: 1.15 10^−6 cm/s; pKa (compound type), input value ([5]; nicardipine, base, input of rat and human models): 8.1 (base); pKa (compound type), reference value ([5]; nicardipine, base, rat and human models): 8.1 (base); Lipophilicity, input value [5, 13]: 4.6 logD7.4; Solubility (ref-pH), input value ([5]; nicardipine, pH 7, input of rat and human models): 7.9 (pH 7) mg/mL; Solubility (ref-pH), reference value ([5]; nicardipine, pH 7, rat and human models): 7.9 (pH 7) mg/mL; Lipophilicity, reference value [5, 14]: 4.6 logD7.4; Fraction unbound, human, input value ([6]; nicardipine, human PBPK model input): 0.01; Fraction unbound, human, reference value ([6]; nicardipine, human plasma): 0.01; Fraction unbound, rat, input value ([7]; nicardipine, rat PBPK model input): 0.084; Fraction unbound, rat, reference value ([7]; nicardipine, rat plasma): 0.084

Question: Which results are given for `N#C[C@@H]1C[C@@H]2C[C@@H]2N1C(=O)[C@@H](N)C12CC3CC(CC(O)(C3)C1)C2` [saxagliptin]?
Answer: Renal clearance, rat, input ([8]; rat PBPK model input): 38 mL/min/kg; Renal clearance, rat, reference ([8]; rat): 38 mL/min/kg; CLint hCYP3A5, input ([9]; human PBPK model input): 0.09 μL/min/pmol CYP; CLint hCYP3A5, reference ([9]; human): 0.09 μL/min/pmol CYP; AUCinf observed ([1]; saxagliptin, human po 2.5 mg): 49.1 ng·h/mL; Cmax observed ([1]; saxagliptin, human po 2.5 mg): 7.89 ng/mL; t1/2 observed ([1]; saxagliptin, human po 2.5 mg): 7.21 h; Renal clearance, human, input [1, 15]: 1.9 mL/min/kg; Renal clearance, human, reference ([1]; saxagliptin, human): 1.9 mL/min/kg; AUC(0-inf) ([3]; rat, po, 5 mg/kg, AUCinf of saxagliptin, alone, SXG 5 mg/kg alone, mean ± SD): 156 ± 22.9 ng·h/mL; AUC(0-inf) ([3]; rat, po, 5 mg/kg, AUCinf of saxagliptin, co-administered with nicardipine, rat, po, SXG 5 mg/kg + NCD 15 mg/kg, mean ± SD): 408 ± 213 ng·h/mL; CL/F ([3]; rat, po, 5 mg/kg, CL/F of saxagliptin, alone, SXG 5 mg/kg alone, mean ± SD): 542 mL/min/kg; CL/F ([3]; rat, po, 5 mg/kg, CL/F of saxagliptin, co-administered with nicardipine, rat, po, SXG 5 mg/kg + NCD 15 mg/kg, mean ± SD): 238 mL/min/kg; Cmax ([3]; rat, po, 5 mg/kg, Cmax of saxagliptin, alone, SXG 5 mg/kg alone, mean ± SD): 98.5 ± 15.1 ng/mL; Cmax ([3]; rat, po, 5 mg/kg, Cmax of saxagliptin, co-administered with nicardipine, rat, po, SXG 5 mg/kg + NCD 15 mg/kg, mean ± SD): 281 ± 147 ng/mL; Tmax ([3]; rat, po, 5 mg/kg, Tmax of saxagliptin, alone, SXG 5 mg/kg alone, mean ± SD): 0.417 ± 0.129 h; Tmax ([3]; rat, po, 5 mg/kg, Tmax of saxagliptin, co-administered with nicardipine, rat, po, SXG 5 mg/kg + NCD 15 mg/kg, mean ± SD): 0.464 ± 0.094 h; half-life ([3]; rat, po, 5 mg/kg, t1/2 of saxagliptin, alone, SXG 5 mg/kg alone, mean ± SD): 1.82 ± 0.737 h; half-life ([3]; rat, po, 5 mg/kg, t1/2 of saxagliptin, co-administered with nicardipine, rat, po, SXG 5 mg/kg + NCD 15 mg/kg, mean ± SD): 2.97 ± 1.23 h; Cmax ([3]; rat, po, Cmax of saxagliptin, co-administered with nicardipine, rat, po, SXG 5 mg/kg + NCD 15 mg/kg, mean ± SD): 280 ± 147 ng/mL; AUCinf of saxagliptin, alone ([3]; rat, po, SXG 5 mg/kg alone, mean ± SD, listed as SXG): 157 ± 23.1 ng·h/mL; increase of plasma concentration of saxagliptin in vivo ([3]; rats, co-administration with nicardipine): more than 2 fold; Specific intestinal permeability, reference ([4]; saxagliptin, rat and human models): 2.73 10^−6 cm/s; CLint hCYP3A4, input ([10]; human PBPK model input): 0.38 μL/min/pmol CYP; CLint hCYP3A4, reference ([10]; human): 0.38 μL/min/pmol CYP; pKa (compound type), input ([5]; saxagliptin, base, input of rat and human models): 7.9 (base); pKa (compound type), reference ([5]; saxagliptin, base, rat and human models): 7.9 (base); Solubility (ref-pH), input ([5]; saxagliptin, pH 7, input of rat and human models): 17.6 (pH 7) mg/mL; Solubility (ref-pH), reference ([5]; saxagliptin, pH 7, rat and human models): 17.6 (pH 7) mg/mL; Lipophilicity, reference ([5]; saxagliptin, reference value for rat and human PBPK models): −0.35 logD7.4; Fraction unbound, human, input [6, 15]: 1; Fraction unbound, human, reference ([6]; saxagliptin, human): 1; half-life at 5 μM [11]: 0.58 h; CLint rCYP3A2, reference ([12]; saxagliptin 5 μM, 10 pmol CYP/mL, 1 mM NADPH, 37 °C): 1.99 μL/min/pmol CYP; CLint rCYP3A2, input [12, 16]: 1.99 μL/min/pmol CYP; Fraction unbound, rat, input [7, 16]: 0.82; Fraction unbound, rat, reference ([7]; saxagliptin, rat): 0.82
